# Experimental data as given in patent US20230255906A1, “Targeting Serpin B9 in Cancer” (The Brigham and Women`s Hospital, Inc., priority 2020, published 2023).
# System: B16 melanoma cells
# Assay: Caspase-3 activity assay (EnzChek Caspase-3 Assay Kit), caspase-3 induction in tumor cells; note: test concentration or dose not given here
# Format: cell-based, mouse
# Settings: not given
# Source text: The EnzChek® Caspase-3 Assay Kit was used to detect apoptosis by assaying for increases in caspase-3 activities. The basis for the assay was rhodamine 110 bis-(N-CBZ-L-aspartyl-L-glutamyl-L-valyl-L-aspartic acid amide) (Z-DEVD-R110). This substrate is a bisamide derivative of rhodamine 110 (R110) containing DEVD peptides covalently linked to each of R110's amino groups, thereby suppressing the dye's visible absorption and its fluorescence. Upon enzymatic cleavage, the nonfluorescent bisamide substrate is converted in a two-step process first to a fluorescent monoamide and then to an even more fluorescent R110.
# At least 1×10^6 cells of the lysate were used for each reaction. B16 cells were treated with compounds to induce apoptosis. A negative control was prepared by incubating cells in the absence of compounds. The cells were incubated with compounds for 24 hrs and washed in PBS. Each cell sample or control was resuspended in 50 μL of the 1×cell lysis buffer. Cells were lysed by incubating on ice for 30 minutes, and the lysed cells were centrifuged to pellet the cellular debris. 50 μL of the supernatant was transferred from each sample to individual microplate wells. 50 μL of the 1× cell lysis buffer was used as a no-enzyme control to determine the background fluorescence of the substrate. 50 μL of the 2×substrate working solution was added to each sample and control. The microplate was covered, and the samples were incubated at room temperature for approximately 30 minutes. The fluorescence was measured by a fluorescence microplate reader (excitation/emission ˜496/520 nm) using excitation and emission filters.
# The ability of this small molecule inhibitor to inhibit intracellular Sb9 was then evaluated. As a marker for cell penetration, the induction of caspase-3 activity in B16 melanoma cells as a surrogate marker for increased GrB activity was measured.
# The induction of caspase-3 activity in B16 melanoma cells as a surrogate marker for increased GrB activity was also measured for other small molecules (compounds of Formulas (V) and (VI) as described herein).
row,SMILES,Ratio of caspase-3 activity to Formula (III)
1,"O=C(c1ccc2oc(-c3ccc(C(F)(F)F)cc3)nc2c1)N1CCOCC1 [5-(4-morpholinylcarbonyl)-2-[4-(trifluoromethyl)phenyl]-1,3-benzoxazole]",0.1317
2,"O=C(NC1C=CS(=O)(=O)C1)c1ccc2oc(-c3cccc(F)c3)nc2c1 (stereo not drawn) [N-(1,1-dioxido-2,3-dihydro-3-thienyl)-2-(3-fluorophenyl)-1,3-benzoxazole-5-carboxamide]",0.09701
3,"CCC(=O)C1CCCN(C(=O)c2ccc3nc(-c4cccc(OC)c4)oc3c2)C1 (stereo not drawn) [1-(1-{[2-(3-methoxyphenyl)-1,3-benzoxazol-6-yl]carbonyl}-3-piperidinyl)-1-propanone]",0.1346
4,"Cn1cnnc1CCNC(=O)c1ccc2oc(-c3cccc(F)c3)nc2c1 [2-(3-fluorophenyl)-N-[2-(4-methyl-4H-1,2,4-triazol-3-yl)ethyl]-1,3-benzoxazole-5-carboxamide]",0.7133
5,"O=C(NCCCn1cccn1)c1ccc2oc(-c3cccc(F)c3)nc2c1 [2-(3-fluorophenyl)-N-[3-(1H-pyrazol-1-yl)propyl]-1,3-benzoxazole-5-carboxamide]",0.9113
6,"COCC1CCN(C(=O)c2ccc3oc(-c4ccc(C(F)(F)F)cc4)nc3c2)C1 (stereo not drawn) [5-{[3-(methoxymethyl)-1-pyrrolidinyl]carbonyl}-2-[4-(trifluoromethyl)phenyl]-1,3-benzoxazole]",0.1424
7,"CCOC(=O)C1CCCN(C(=O)c2ccc3nc(-c4cccc(OC)c4)oc3c2)C1 (stereo not drawn) [ethyl 1-{[2-(3-methoxyphenyl)-1,3-benzoxazol-6-yl]carbonyl}-3-piperidinecarboxylate]",0.1363
8,"O=C(NC1CCC1)c1ccc2oc(-c3ccc(C(F)(F)F)cc3)nc2c1 [N-cyclobutyl-2-[4-(trifluoromethyl)phenyl]-1,3-benzoxazole-5-carboxamide]",1.28
9,"CN(CCN1CCOCC1)C(=O)c1ccc2oc(-c3ccc(C(F)(F)F)cc3)nc2c1 [N-methyl-N-[2-(4-morpholinyl)ethyl]-2-[4-(trifluoromethyl)phenyl]-1,3-benzoxazole-5-carboxamide]",0.1327
10,"O=C1CCC(NC(=O)c2ccc3nc(-c4ccccc4)oc3c2)C(=O)N1 (stereo not drawn) [N-(2,6-dioxopiperidin-3-yl)-2-phenyl-1,3-benzoxazole-6-carboxamide]",0.6989
11,"CC(Cn1cncn1)NC(=O)c1ccc2oc(-c3cccc(F)c3)nc2c1 (stereo not drawn) [2-(3-fluorophenyl)-N-[1-methyl-2-(1H-1,2,4-triazol-1-yl)ethyl]-1,3-benzoxazole-5-carboxamide]",0.1014
12,"O=C(c1ccc2oc(-c3cccc(F)c3)nc2c1)N1CCCCC1CO (stereo not drawn) [(1-{[2-(3-fluorophenyl)-1,3-benzoxazol-5-yl]carbonyl}-2-piperidinyl)methanol]",1.133
13,"CCOC(=O)CC1CCCCN1C(=O)c1ccc2nc(-c3cccc(OC)c3)oc2c1 (stereo not drawn) [ethyl (1-{[2-(3-methoxyphenyl)-1,3-benzoxazol-6-yl]carbonyl}-2-piperidinyl)acetate]",0.1479
14,"O=C(NCc1cccnc1)c1ccc2oc(-c3cccc(F)c3)nc2c1 [2-(3-fluorophenyl)-N-(3-pyridinylmethyl)-1,3-benzoxazole-5-carboxamide]",0.1077
15,"CCN(CCn1cccn1)C(=O)c1ccc2nc(-c3cccc(OC)c3)oc2c1 [N-ethyl-2-(3-methoxyphenyl)-N-[2-(1H-pyrazol-1-yl)ethyl]-1,3-benzoxazole-6-carboxamide]",0.1363
16,"CCOC(=O)CCNC(=O)c1ccc2nc(-c3cccc(OC)c3)oc2c1 [ethyl N-{[2-(3-methoxyphenyl)-1,3-benzoxazol-6-yl]carbonyl}-beta-alaninate]",0.1049
17,"CCc1ccc(CN(C)C(=O)c2ccc3oc(-c4cccc(F)c4)nc3c2)nc1 [N-[(5-ethyl-2-pyridinyl)methyl]-2-(3-fluorophenyl)-N-methyl-1,3-benzoxazole-5-carboxamide]",0.1324
18,"CC(C)N(Cc1nccn1C)C(=O)c1ccc2oc(-c3cccc(F)c3)nc2c1 [2-(3-fluorophenyl)-N-isopropyl-N-[(1-methyl-1H-imidazol-2-yl)methyl]-1,3-benzoxazole-5-carboxamide]",1.634
19,"CN(CCC(O)c1ccccc1)C(=O)c1ccc2oc(-c3cccc(F)c3)nc2c1 (stereo not drawn) [2-(3-fluorophenyl)-N-(3-hydroxy-3-phenylpropyl)-N-methyl-1,3-benzoxazole-5-carboxamide]",0.1288
20,"COc1cccc(-c2nc3ccc(C(=O)NCC4CCCO4)cc3o2)c1 (stereo not drawn) [2-(3-methoxyphenyl)-N-(tetrahydro-2-furanylmethyl)-1,3-benzoxazole-6-carboxamide]",0.4304
21,"CCN1CCN(C(=O)c2ccc3oc(-c4cccc(F)c4)nc3c2)CC1 [5-[(4-ethyl-1-piperazinyl)carbonyl]-2-(3-fluorophenyl)-1,3-benzoxazole]",0.6541
22,"CC(C)NC(=O)CCNC(=O)c1ccc2nc(-c3ccccc3)oc2c1 [3-[(2-phenyl-1,3-benzoxazol-6-yl)formamido]-N-(propan-2-yl)propanamide]",1.371
23,"CO[C@H]1CN(C)C[C@@H]1NC(=O)c1ccc2oc(-c3cccc(F)c3)nc2c1 (relative stereo) [2-(3-fluorophenyl)-N-[(3S*,4S*)-4-methoxy-1-methylpyrrolidin-3-yl]-1,3-benzoxazole-5-carboxamide]",0.08936

# Same assay, conditions: relative to compound of Formula (III)
row,SMILES,"Caspase-3 induction, Normalized to Formula (III) (%)"
1,"CCN(C)C(=O)c1cc2c(cc1O)OCO2 [N-ethyl-6-hydroxy-N-methyl-2H-1,3-benzodioxole-5-carboxamide]",−3.424%
2,"O=C(c1cc2c(cc1O)OCO2)N1CCCC1 [6-(pyrrolidine-1-carbonyl)-2H-1,3-benzodioxol-5-ol]",−35.7785%
3,"COCCCNC(=O)c1cc2c(cc1O)OCO2 [6-hydroxy-N-(3-methoxypropyl)-2H-1,3-benzodioxole-5-carboxamide]",−41.8942%
4,"Cc1cc(O)c(O)cc1C(=O)N1CCCC1 [4-methyl-5-(pyrrolidine-1-carbonyl)benzene-1,2-diol]",−40.485%
5,COc1cc(C(=O)NCC2CCOC2)ccc1OC(C)C (stereo not drawn) [3-methoxy-N-[(oxolan-3-yl)methyl]-4-(propan-2-yloxy)benzamide],−2.673%
6,CCOc1ccc(C(=O)NCCCOC)cc1O [4-ethoxy-3-hydroxy-N-(3-methoxypropyl)benzamide],−35.6816%
7,"CCN(C)C(=O)c1cc(O)c(O)cc1C [N-ethyl-4,5-dihydroxy-N,2-dimethylbenzamide]",−33.2116%
8,"COc1cc(Br)c(C(=O)NCC2CCOCC2)cc1OC [2-bromo-4,5-dimethoxy-N-[(oxan-4-yl)methyl]benzamide]",−43.6422%
9,"COc1cc(C(=O)NC2CCCC2)cc(OC)c1O [N-cyclopentyl-4-hydroxy-3,5-dimethoxybenzamide]",−24.5783%
10,"CCN(C)C(=O)c1ccc2nc(S)oc2c1 [N-ethyl-N-methyl-2-sulfanyl-1,3-benzoxazole-6-carboxamide]",−6.201%
11,"COc1cc(Br)c(C(=O)NCC2CCOC2)cc1OC (stereo not drawn) [2-bromo-4,5-dimethoxy-N-[(oxolan-3-yl)methyl]benzamide]",−2.142%
12,"COCCCNC(=O)c1cccc2oc(C)nc12 [N-(3-methoxypropyl)-2-methyl-1,3-benzoxazole-4-carboxamide]",−70.4086%
13,"CCN(C)C(=O)c1ccc2nc(-c3ccccc3)oc2c1 [N-ethyl-N-methyl-2-phenyl-1,3-benzoxazole-6-carboxamide]",−76.883%
14,"Cc1cc(O)c(O)cc1C(=O)NCC(C)C [4,5-dihydroxy-2-methyl-N-(2-methylpropyl)benzamide]",−27.9096%
15,"COc1cc(C(=O)NCC2CCOCC2)cc(OC)c1O [4-hydroxy-3,5-dimethoxy-N-[(oxan-4-yl)methyl]benzamide]",−78.7609%
16,"Cc1nc2c(C(=O)NC3CCCC3)cccc2o1 [N-cyclopentyl-2-methyl-1,3-benzoxazole-4-carboxamide]",−30.2879%
17,"O=C(NCc1ccccc1)c1ccc2nc(C3CC3)oc2c1 [N-benzyl-2-cyclopropyl-1,3-benzoxazole-6-carboxamide]",−32.882%
18,COc1cc(C(=O)NCC2CCCC2)ccc1OCCC(C)C [N-(cyclopentylmethyl)-3-methoxy-4-(3-methylbutoxy)benzamide],−50.1028%
19,CCOc1ccc(C(=O)NCC(C)C)cc1O [4-ethoxy-3-hydroxy-N-(2-methylpropyl)benzamide],−3.559%
